Experimental data as given in EP0479665A2, “1,4-Dihydropyridine derivatives, method for preparing the same and use thereof” (TEIKOKU CHEMICAL INDUSTRIES CO., LTD., priority 1990, dated 1992).
Counter-ions that a name gives are not always drawn. Like-named read-outs stand apart in the source and are kept apart here. Marks after values point to notes of the source that are not given here.

Tests used:
[1] = test system: spontaneously hypertensive rats; test: Antihypertensive action, tail-cuff method, single oral dose; type: in vivo; settings: difference in blood pressure before and after administration; 10 mg/kg oral; an hour after the administration; two rats
Procedure: Measurement was conducted an hour after the administration. […] The antihypertensive action of each of […] nicardipine was also measured for comparison.

[2] = in vivo; settings: oral, after a fast, 4-week old mouse, read-out: Toxicity (LD50)
Procedure: After a fast, a ddy-mouse (4-week old) was orally given a solution obtained by dissolving and/or suspending the compound in each Example 18, 19 and 20 in dimethylsulfoxide (DMSO) or carboxymethylcellulose (CMC). The value of LD50 was calculated from the mortality.

[3] = test system: thoracic aorta; test: Calcium antagonism: relaxation of thoracic aorta helical strips contracted with hyperpotassium solution; type: cell-based, rabbit; settings: Oryctolagus cuniculus; concentration for 50 % relaxation; hyperpotassium solution (50 mM); relaxation with 10^-4 M papaverine defined as 100 %; read-out: Measured Value (IC50)
Procedure: A thoracic aorta was removed from a rabbit to obtain a helical strips (width: 3 mm; length: 30 mm). This strip was suspended under a load of 0.5 g in a Magnus tube filled with Krebs-Henseleit solution. Subsequently, the Krebs-Henseleit solution was replaced with hyperpotassium solution (50 mM) to contract the strip. The strip was then left to stand until the contraction was stabilized. Thereafter, the compounds obtained in Examples 18, 19 and 20 and dissolved in ethanol-distilled water were added to the strip.
The concentration (IC50) of each compound required for obtaining relaxation of 50 % was measured. It is to be noted that the relaxation of a strip treated with 10-^4M papaverine was defined to 100 %.

[4] = test system: spontaneously hypertensive rats; test: Antihypertensive action regarding administration amount, tail-cuff method; type: in vivo; settings: for ED (40 mmHg decrease): Rattus norvegicus, read-out: ED-40 mmHg; for T1/2(dose): time for recovery to 50 % of maximal effect (index of persistence)
Procedure: Ten spontaneously hypertensive rats (10 - 20 week old) were used for this test. Blood pressure was measured in accordance with tail-cuff method by employing a blood pressure gauge for small animals UR-1000 (manufactured by Ueda Works, Ltd., Japan). […] The amount of each compound required for lowering the blood pressure of 40 mmHg decrease in blood pressure was calculated from the relationship between the administration amount and the blood pressure after adiministration (lowermost blood pressure). This amount was defined as ED-40 mmHg for serving as an index of antihypertensive action. Tz was shown as the time required for recovery to 50 % of maximal […]. This value was used for an index of persistence.

[5] = oral amount for a 40 mmHg decrease in blood pressure, suspended in 0.5 % carboxymethylcellulose, ten rats

Row | Compound | Antihypertensive Action [1] [mmHg] | also measured
1 | 1,4-dihydro-2,6-dimethyl-4-(3'-nitrophenyl)-3,5-pyridinedicarboxylic acid methyl (1-piperidinylmethylcyclohexyl)methyl ester hydrochloride [Example 2] | -89 | 
2 | COC(=O)C1=C(C)NC(C)=C(C(=O)OCC2(CN(C)Cc3ccccc3)CCCCC2)C1c1cccc([N+](=O)[O-])c1.Cl (racemic) [Example 1, 1,4-dihydro-2,6-dimethyl-4-(3'-nitrophenyl)-3,5-pyridinedicarboxylic acid 1-(N-benzyl-N-methylaminomethyl)cyclohexylmethyl methyl ester hydrochloride] | -131 | 
3 | COC(=O)C1=C(C)NC(C)=C(C(=O)OCC2(CN3CCN(c4ccccc4)CC3)CCCCC2)C1c1cccc([N+](=O)[O-])c1 (racemic) [Example 3, 1,4-dihydro-2,6-dimethyl-4-(3'-nitrophenyl)-3,5-pyridinedicarboxylic acid methyl 1-(4-phenylpiperazinylmethyl)cyclohexylmethyl ester dihydrochloride.1/2 acetone adduct] | -109 | 
4 | CC1=C(C(=O)OCC2(CN(C)C)CCCCC2)C(c2cccc([N+](=O)[O-])c2)C(C(=O)OC(C)C)=C(C)N1 (racemic) [Example 5] | -68 | 
5 | CCOC(=O)C1=C(C)NC(C)=C(C(=O)OCC2(CN(C)Cc3ccccc3)CCCCC2)C1c1cccc([N+](=O)[O-])c1 (racemic) [Example 6, 1,4-dihydro-2,6-dimethyl-4-(3'-nitrophenyl)-3,5-pyridinedicarboxylic acid 1-(N-benzyl-N-methylaminomethyl)cyclohexylmethyl ethyl ester] | -110 | 
6 | CCOC(=O)C1=C(C)NC(C)=C(C(=O)OCC2(CN(C)C)CCCCC2)C1c1cccc([N+](=O)[O-])c1 (racemic) [Example 7] | -61 | 
7 | COC(=O)C1=C(C)NC(C)=C(C(=O)OCC2(CN(C)Cc3ccccc3)CCCCC2)C1c1cc([N+](=O)[O-])ccc1F (racemic) [Example 8] | -140 | 
8 | COC(=O)C1=C(C)NC(C)=C(C(=O)OCC2(CN3CCN(Cc4ccccc4)CC3)CCCCC2)C1c1cccc([N+](=O)[O-])c1 (racemic) [Example 10] | -110 | 
9 | COC(=O)C1=C(C)NC(C)=C(C(=O)OCC2(CN3CCN(C)CC3)CCCCC2)C1c1cccc([N+](=O)[O-])c1 (racemic) [Example 11] | -74 | 
10 | COC(=O)C1=C(C)NC(C)=C(C(=O)OCC2(CN3CCOCC3)CCCCC2)C1c1cccc([N+](=O)[O-])c1 (racemic) [Example 12] | -113 | 
11 | CCN(CC)CC1(COC(=O)C2=C(C)NC(C)=C(C(=O)OC)C2c2cccc([N+](=O)[O-])c2)CCCCC1 (racemic) [Example 13] | -108 | 
12 | COC(=O)C1=C(C)NC(C)=C(C(=O)OCC2(CN(C)Cc3ccc(F)cc3)CCCCC2)C1c1cccc([N+](=O)[O-])c1 (racemic) [Example 15] | -114 | 
13 | COC(=O)C1=C(C)NC(C)=C(C(=O)OCC2(CN(C)Cc3ccccc3Cl)CCCCC2)C1c1cccc([N+](=O)[O-])c1 (racemic) [Example 16] | -120 | 
14 | COC(=O)C1=C(C)NC(C)=C(C(=O)OCC2(CN3CCN(C(c4ccccc4)c4ccccc4)CC3)CCCCC2)C1c1cccc([N+](=O)[O-])c1 (racemic) [Example 17] | -112 | 
15 | COC(=O)C1=C(C)NC(C)=C(C(=O)OCC2(CN(C)C)CCCCC2)C1c1cccc([N+](=O)[O-])c1 (single isomer, unassigned) [Example 21] | -53 | 
16 | COC(=O)C1=C(C)NC(C)=C(C(=O)OCC2(CN(C)Cc3ccc(Cl)cc3)CCCCC2)C1c1cccc([N+](=O)[O-])c1 (single isomer, unassigned) [Example 22] | -122 | 
17 | COC(=O)C1=C(C)NC(C)=C(C(=O)OCC2(CN3CCOCC3)CCCCC2)C1c1cccc([N+](=O)[O-])c1 (single isomer, unassigned) [Example 23] | -87 | 
18 | COC(=O)C1=C(C)NC(C)=C(C(=O)OCC2(CN3CCN(C)CC3)CCCCC2)C1c1cccc([N+](=O)[O-])c1 (single isomer, unassigned) [Example 24] | -79 | 
19 | COC(=O)C1=C(C)NC(C)=C(C(=O)OCC2(CN3CCN(Cc4ccccc4)CC3)CCCCC2)C1c1cccc([N+](=O)[O-])c1 (single isomer, unassigned) [Example 25] | -98 | 
20 | COC(=O)C1=C(C)NC(C)=C(C(=O)OCC2(CN(C)Cc3ccc(F)cc3)CCCCC2)C1c1cccc([N+](=O)[O-])c1 (single isomer, unassigned) [Example 26] | -111 | 
21 | CCN(Cc1ccccc1)CC1(COC(=O)C2=C(C)NC(C)=C(C(=O)OC)C2c2cccc([N+](=O)[O-])c2)CCCCC1 (single isomer, unassigned) [Example 27] | -109 | 
22 | COC(=O)C1=C(C)NC(C)=C(C(=O)OCC2(CN(C)Cc3ccccc3)CCCCC2)C1c1cccc([N+](=O)[O-])c1.Cl (single isomer, unassigned; (+)) [Example 18, (+)-1,4-dihydro-2,6-dimethyl-4-(3'-nitro-phenyl)-3,5-pyridinedicarboxylic acid 1-(N-benzyl-N-methylaminomethyl)cyclohexylmethyl methyl ester hydrochloride] | -96 | LD50 ([2]; medium DMSO): 130 mg/kg; IC50 [3]: 100 nM; ED (40 mmHg decrease) [4, 5]: 0.7 mg/kg; T1/2(dose) ([4]; oral dose 3 mg/kg): >6.0 hr(3 mg/kg)*
23 | COC(=O)C1=C(C)NC(C)=C(C(=O)OCC2(CN3CCCCC3)CCCCC2)C1c1cccc([N+](=O)[O-])c1 (single isomer, unassigned; (+)) [Example 19, (+)-1,4-dihydro-2,6-dimethyl-4-(3'-nitro-phenyl)-3,5-pyridinedicarboxylic acid methyl (1-piperidinylmethylcyclohexyl)methyl ester hydrochloride] | -75 | LD50 ([2]; medium DMSO): 100 mg/kg; IC50 [3]: 1.5 nM; ED (40 mmHg decrease) [4, 5]: 0.5 mg/kg; T1/2(dose) ([4]; oral dose 3 mg/kg): >6.0 hr(3 mg/kg)*
24 | COC(=O)C1=C(C)NC(C)=C(C(=O)OCC2(CN3CCN(c4ccccc4)CC3)CCCCC2)C1c1cccc([N+](=O)[O-])c1 (single isomer, unassigned; (+)) [Example 20, (+)-1,4-dihydro-2,6-dimethyl-4-(3'-nitro-phenyl)-3,5-pyridinedicarboxylic acid methyl 1-(4-phenylpiperazinylmethyl)cyclohexylmethyl ester dihydrochloride] | -129 | LD50 ([2]; medium CMC): 290 mg/kg; IC50 [3]: 420 nM; ED (40 mmHg decrease) [4, 5]: 0.3 mg/kg; T1/2(dose) ([4]; oral dose 1 mg/kg): >6.0 hr(1 mg/kg)*
25 | COC(=O)C1=C(C)NC(C)=C(C(=O)OCCN2CCN(C(c3ccccc3)c3ccccc3)CC2)C1c1cccc([N+](=O)[O-])c1 (stereo not drawn) [Manidipine, reference compound] |  | LD50 ([2]; medium CMC): 200 mg/kg; IC50 [3]: 27 nM; ED (40 mmHg decrease) [4, 5]: 1.7 mg/kg; T1/2(dose) ([4]; oral dose 3 mg/kg): 5.0 hr(3 mg/kg)*
26 | COC(=O)C1=C(C)NC(C)=C(C(=O)OCCN(C)Cc2ccccc2)C1c1cccc([N+](=O)[O-])c1 (stereo not drawn) [Nicardipine, nicardipine, reference compound] | -77 | LD50 ([2]; medium DMSO): 190 mg/kg; IC50 [3]: 6.8 nM; ED (40 mmHg decrease) [4, 5]: 2.6 mg/kg; T1/2(dose) ([4]; oral dose 10 mg/kg): 4.5 hr(10mg/kg)*
27 | COC(=O)C1=C(C)NC(C)=C(C(=O)OC)C1c1ccccc1[N+](=O)[O-] [Nifedipine, nifedipine, reference compound] | -58 | IC50 [3]: 29 nM; ED (40 mmHg decrease) ([4]; po): 3.3 mg/kg
